# Source: PMC9601137, “Deciphering Cellodextrin and Glucose Uptake in Clostridium thermocellum” (mBio, 2022)
# “Also recorded” adds a separate entry of the source. Like-named read-outs stand apart in the source and are kept apart here.
# Experiments:
# C. thermocellum cells = test: Cell-associated cellulosome (cellulase) activity measurement; type: cell-based, Clostridium thermocellum; settings: glucose+cellobiose medium vs glucose medium
# Method: C. thermocellum cells were cultivated to the early exponential stage with various carbon sources. Cell suspensions (1.0 mL) were sampled and centrifuged at 15,000 × g for 10 min to separate supernatant from the pellet. Cell-associated cellulosome activity was measured in a 1.0-mL reaction volume containing the pellet and 15 mg Avicel as the substrate, using GS-2 medium as the reaction buffer. The concentration of reducing sugars was determined by the 3,5-dinitrosalicylic acid method after incubation at 55°C for 24 h unless otherwise stated. One unit of enzyme activity is defined as the amount of enzyme that releases 1 nmol reducing sugar (glucose equivalent) per min.
# CbpA [1] = target: T1, CbpA (Acetivibrio thermocellus (Clostridium thermocellum), UniProt A3DCF2); test: NMR titration (1H-15N HSQC) of 15N-labelled CbpA with saccharides; type: binding; settings: 298 K, pH 6.5, protein:substrate up to 1:20
# T1 sequence (A3DCF2 entry or part of it): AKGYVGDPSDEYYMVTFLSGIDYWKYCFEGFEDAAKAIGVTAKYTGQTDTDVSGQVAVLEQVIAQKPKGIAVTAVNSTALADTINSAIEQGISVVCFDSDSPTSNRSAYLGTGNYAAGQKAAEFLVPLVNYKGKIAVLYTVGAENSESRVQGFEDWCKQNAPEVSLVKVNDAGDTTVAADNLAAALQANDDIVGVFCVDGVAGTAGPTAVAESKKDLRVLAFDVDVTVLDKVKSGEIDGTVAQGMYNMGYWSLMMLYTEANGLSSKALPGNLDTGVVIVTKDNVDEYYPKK
# Method: (§1) NMR titration experiments were performed at 298 K on a Bruker Avance III 600 MHz NMR spectrometer equipped with a cryoprobe. The ^15N-labeled protein samples contained 0.1 or 0.2 mM sugar-binding protein in 20 mM Bis-Tris (pH 6.5), 100 mM KCl, 0.02% (wt/vol) dextran sulfate sodium, and 90% H2O/10% D2O. The concentrations of carbohydrate substrates were 10, 20, or 100 mM in the same buffer. For the titration, the substrates were gradually added to the labeled proteins until the ratio of their concentrations reached 1:20. A series of two-dimensional ^1H-^15N HSQC spectra were recorded at different protein-substrate ratios during the titration.
# CbpB [2] = target: T2, CbpB (Acetivibrio thermocellus (Clostridium thermocellum), UniProt A3DE73, V209A/V350L); test: NMR titration (1H-15N HSQC) of 15N-labelled CbpB with saccharides; type: binding; settings: 298 K, pH 6.5, protein:substrate up to 1:20
# T2 sequence (A3DE73 entry or part of it V209A/V350L): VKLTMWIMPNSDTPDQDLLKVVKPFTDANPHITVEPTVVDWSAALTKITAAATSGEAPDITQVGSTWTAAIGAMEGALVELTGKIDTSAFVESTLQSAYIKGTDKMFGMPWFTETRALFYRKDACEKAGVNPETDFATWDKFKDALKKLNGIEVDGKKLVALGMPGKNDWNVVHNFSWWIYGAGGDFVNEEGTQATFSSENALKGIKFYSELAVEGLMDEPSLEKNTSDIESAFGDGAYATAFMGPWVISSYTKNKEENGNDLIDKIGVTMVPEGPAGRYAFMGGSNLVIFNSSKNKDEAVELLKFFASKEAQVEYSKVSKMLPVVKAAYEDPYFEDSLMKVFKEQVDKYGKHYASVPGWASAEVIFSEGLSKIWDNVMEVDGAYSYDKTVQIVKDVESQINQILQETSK
# Method: as §1
# CbpB [3] = target: T2, CbpB; test: ITC titration of carbohydrate ligands with CbpB; type: binding
# Method: (§2) Isothermal titration calorimetry measurements were performed at 30°C using a MicroCal PEAQ-ITC (Malvern Panalytical Ltd., Malvern, United Kingdom). Protein samples were dialyzed against buffer containing 50 mM Tris-HCl (pH 8.0) and 100 mM NaCl. Carbohydrate-ligand solutions of cellodextrins, glucose, and xylose were prepared using the same buffer as for protein dialysis. The sample cell was loaded with 280 μL of protein sample (~50 μM), and the reference cell contained distilled water. The syringe was filled with 50 μL of ligand (500 to 750 μM). Titrations were carried out by adding 0.8 μL of ligand for the first injection and 2 μL for the subsequent 19 injections, with stirring at 750 rpm. Binding parameters were determined by fitting the experimental binding isotherms using a single-site model.
# CbpC = system: CbpC; set-up: method as in PMID 18952792; settings: cited from earlier work
# CbpA [4] = target: T1, CbpA; test: ITC titration of carbohydrate ligands with CbpA; type: binding
# Method: as §2
# Lbp = system: Lbp; set-up: method as in PMID 18952792; settings: previous study; cited from earlier work
# CbpD [5] = test: NMR titration of 15N-labelled CbpD with saccharides; type: binding, Clostridium thermocellum; settings: 298 K
# Method: as §1
# CbpD [6] = test: ITC titration of carbohydrate ligands with CbpD; type: binding, Clostridium thermocellum; settings: 30°C
# Method: as §2
# [7] = ITC, 30°C, 50 mM Tris-HCl pH 8.0, 100 mM NaCl, single-site model
# [8] = ITC, 30°C, 50 mM Tris-HCl pH 8.0, 100 mM NaCl, single-site model, read-out: KD (dissociation constant)
compound,measurement,setting,value
"O=C[C@H](O)[C@@H](O)[C@H](O[C@@H]1O[C@H](CO)[C@@H](O)[C@H](O)[C@H]1O)[C@H](O)CO [Cellobiose, cellobiose]",induction effect on cellulosome expression (cellulase activity),"C. thermocellum cells; wild-type cells, 5 g/L cellobiose",significant induction effect
same,induction effect on cellulosome expression (cellulase activity),C. thermocellum cells; ΔtransporterB and Δ2554 cells,no induction effect
same,binding to CbpA in NMR titration (HSQC peak shifts),CbpA [1],not
same,binding to CbpB in NMR titration (HSQC peak shifts),CbpB [2],can bind; also recorded: significant peak shifts
same,Kd,CbpB [3],1890 ± 360 nM
same,Ka,"CbpB [3]; ITC, 30°C",5.29 ± 0.99 ×10^5 · M^−1
same,TΔS,"CbpB [3]; ITC, 30°C",4.66 kcal/mol
same,ΔG,"CbpB [3]; ITC, 30°C",-7.93 kcal/mol
same,ΔH (change in enthalpy),"CbpB [3]; ITC, 30°C",-3.27 ± 0.096 kcal/mol
same,N (number of binding site),CbpB [3]; [7],1.03 ± 0.02
"OC[C@H]1O[C@@H](O[C@H]2[C@H](O)[C@@H](O)[C@H](O[C@H]3[C@H](O)[C@@H](O)[C@H](O[C@H]4[C@H](O)[C@@H](O)[C@H](O[C@H]5[C@H](O)[C@@H](O)C(O)O[C@@H]5CO)O[C@@H]4CO)O[C@@H]3CO)O[C@@H]2CO)[C@H](O)[C@@H](O)[C@@H]1O (some centres unmarked) [Cellopentaose, cellopentaose]",Ka,"CbpB [3]; ITC, 30°C",14.9 ± 3.3 ×10^5 · M^−1
same,TΔS,"CbpB [3]; ITC, 30°C",11.3 kcal/mol
same,ΔG,"CbpB [3]; ITC, 30°C",-8.58 kcal/mol
same,ΔH (change in enthalpy),"CbpB [3]; ITC, 30°C",2.75 ± 0.072 kcal/mol
same,N (number of binding site),CbpB [3]; [7],1.02 ± 0.01
same,Kd,CbpB [3]; [8],670 ± 150 nM
"OC[C@H]1O[C@@H](O[C@H]2[C@H](O)[C@@H](O)[C@H](O[C@H]3[C@H](O)[C@@H](O)[C@H](O[C@H]4[C@H](O)[C@@H](O)C(O)O[C@@H]4CO)O[C@@H]3CO)O[C@@H]2CO)[C@H](O)[C@@H](O)[C@@H]1O (some centres unmarked) [Cellotetraose, cellotetraose]",Ka,"CbpB [3]; ITC, 30°C",17.8 ± 2.5 ×10^5 · M^−1
same,TΔS,"CbpB [3]; ITC, 30°C",10.3 kcal/mol
same,"interaction with CbpB in ITC, in words","CbpB [3]; ITC, 30°C",highest binding affinity
same,ΔG,"CbpB [3]; ITC, 30°C",-8.68 kcal/mol
same,ΔH (change in enthalpy),"CbpB [3]; ITC, 30°C",1.66 ± 0.0263 kcal/mol
same,N (number of binding site),CbpB [3]; [7],1.02 ± 0.08
same,Kd,"CbpB [3]; ITC, 30°C, 50 mM Tris-HCl pH 8.0, 100 mM NaCl, single-site model, listed as cellotetraose, read-out: KD (dissociation constant)",562 nM
same,Kd,CbpB [3]; [8],560 ± 80 nM
"OC[C@H]1O[C@@H](O[C@H]2[C@H](O)[C@@H](O)[C@H](O[C@H]3[C@H](O)[C@@H](O)C(O)O[C@@H]3CO)O[C@@H]2CO)[C@H](O)[C@@H](O)[C@@H]1O (some centres unmarked) [Cellotriose, cellotriose]",binding to CbpA in NMR titration (HSQC peak shifts),CbpA [1],not
same,binding to CbpB in NMR titration (HSQC peak shifts),CbpB [2],significant peak shifts
same,Ka,"CbpB [3]; ITC, 30°C",8.55 ± 1.69 ×10^5 · M^−1
same,TΔS,"CbpB [3]; ITC, 30°C",10.7 kcal/mol
same,ΔG,"CbpB [3]; ITC, 30°C",-8.25 kcal/mol
same,ΔH (change in enthalpy),"CbpB [3]; ITC, 30°C",2.49 ± 0.072 kcal/mol
same,N (number of binding site),CbpB [3]; [7],0.97 ± 0.02
same,Kd,CbpB [3]; [8],1170 ± 230 nM
"OC[C@H]1OC(O)[C@H](O)[C@@H](O)[C@@H]1O (some centres unmarked) [Glucose, glucose]",binding to CbpA in NMR titration (HSQC peak shifts),CbpA [1],binds; also recorded: significant peak shifts
same,binding to CbpC in previous ITC experiments,CbpC,can bind
same,Kd,CbpA [4],240000 ± 95000 nM
same,"binding to CbpA in ITC, in words",CbpA [4]; ITC,remarkably weak
same,Ka,"CbpA [4]; ITC, 30°C",0.042 ± 0.016 ×10^5 · M^−1
same,TΔS,"CbpA [4]; ITC, 30°C",5.43 kcal/mol
same,ΔG,"CbpA [4]; ITC, 30°C",-5.02 kcal/mol
same,ΔH (change in enthalpy),"CbpA [4]; ITC, 30°C",0.409 ± 0.086 kcal/mol
same,N (number of binding site),CbpA [4]; [7],1.06 ± 0.07
same,binding to CbpB in NMR titration (HSQC peak shifts),CbpB [2],not
same,"interaction with CbpB in ITC, in words","CbpB [3]; ITC, 30°C",could not be fitted to obtain reasonable N and KD values
"OC[C@H]1O[C@@H](O[C@H]2[C@H](O)[C@@H](CO)OC(O)[C@@H]2O)[C@H](O)[C@@H](O)[C@@H]1O (some centres unmarked) [Laminaribiose, laminaribiose]",binding to Lbp in ITC assays,Lbp,shown to bind
same,Ka,"CbpB [3]; ITC, 30°C",0.93 ± 0.25 ×10^5 · M^−1
same,TΔS,"CbpB [3]; ITC, 30°C",7.98 kcal/mol
same,"interaction with CbpB in ITC, in words","CbpB [3]; ITC, 30°C",lower affinity compared to cellobiose
same,ΔG,"CbpB [3]; ITC, 30°C",-6.91 kcal/mol
same,ΔH (change in enthalpy),"CbpB [3]; ITC, 30°C",1.09 ± 0.1 kcal/mol
same,N (number of binding site),CbpB [3]; [7],0.98 ± 0.04
same,Kd,CbpB [3]; [8],10700 ± 2800 nM
O=C[C@H](O)[C@@H](O)[C@H](O)CO [xylose],interaction with CbpD in NMR titration,CbpD [5],could not detect any xylose-binding ability
same,interaction with CbpD in ITC,CbpD [6],could not detect any xylose-binding ability
